Entries after “also recorded” stand apart in the source; their conditions may differ.

In one data set the target is T1, hPXR–NCoR (Homo sapiens, UniProt O75469).
T1 construct: 5 nM GST-hPXR-LBD; purchased Thermo Fisher Scientific
The class given is biochemical.

The target in the next data set is T2, hCAR (Homo sapiens, UniProt Q14994).
T2 construct: expressed in transfected cells; host or cells: HepG2
Description: hCAR transactivation assay, inverse agonistic mode. It is filed as cell-based.

The test system of the next data set is SNU-C4 cells. The data set is described as follows: CellTiter-Glo cytotoxicity assay. The settings on record: 10 µM SPA70. In general terms: ATP-based viability assays read luminescence as a measure of living cells.
The next data set deals with T3, FLT4 (Homo sapiens, UniProt P35916).
T3 construct: purchased DiscoverX (Ambit Biosciences) KINOMEscan
T3 sequence (P35916 25-1363): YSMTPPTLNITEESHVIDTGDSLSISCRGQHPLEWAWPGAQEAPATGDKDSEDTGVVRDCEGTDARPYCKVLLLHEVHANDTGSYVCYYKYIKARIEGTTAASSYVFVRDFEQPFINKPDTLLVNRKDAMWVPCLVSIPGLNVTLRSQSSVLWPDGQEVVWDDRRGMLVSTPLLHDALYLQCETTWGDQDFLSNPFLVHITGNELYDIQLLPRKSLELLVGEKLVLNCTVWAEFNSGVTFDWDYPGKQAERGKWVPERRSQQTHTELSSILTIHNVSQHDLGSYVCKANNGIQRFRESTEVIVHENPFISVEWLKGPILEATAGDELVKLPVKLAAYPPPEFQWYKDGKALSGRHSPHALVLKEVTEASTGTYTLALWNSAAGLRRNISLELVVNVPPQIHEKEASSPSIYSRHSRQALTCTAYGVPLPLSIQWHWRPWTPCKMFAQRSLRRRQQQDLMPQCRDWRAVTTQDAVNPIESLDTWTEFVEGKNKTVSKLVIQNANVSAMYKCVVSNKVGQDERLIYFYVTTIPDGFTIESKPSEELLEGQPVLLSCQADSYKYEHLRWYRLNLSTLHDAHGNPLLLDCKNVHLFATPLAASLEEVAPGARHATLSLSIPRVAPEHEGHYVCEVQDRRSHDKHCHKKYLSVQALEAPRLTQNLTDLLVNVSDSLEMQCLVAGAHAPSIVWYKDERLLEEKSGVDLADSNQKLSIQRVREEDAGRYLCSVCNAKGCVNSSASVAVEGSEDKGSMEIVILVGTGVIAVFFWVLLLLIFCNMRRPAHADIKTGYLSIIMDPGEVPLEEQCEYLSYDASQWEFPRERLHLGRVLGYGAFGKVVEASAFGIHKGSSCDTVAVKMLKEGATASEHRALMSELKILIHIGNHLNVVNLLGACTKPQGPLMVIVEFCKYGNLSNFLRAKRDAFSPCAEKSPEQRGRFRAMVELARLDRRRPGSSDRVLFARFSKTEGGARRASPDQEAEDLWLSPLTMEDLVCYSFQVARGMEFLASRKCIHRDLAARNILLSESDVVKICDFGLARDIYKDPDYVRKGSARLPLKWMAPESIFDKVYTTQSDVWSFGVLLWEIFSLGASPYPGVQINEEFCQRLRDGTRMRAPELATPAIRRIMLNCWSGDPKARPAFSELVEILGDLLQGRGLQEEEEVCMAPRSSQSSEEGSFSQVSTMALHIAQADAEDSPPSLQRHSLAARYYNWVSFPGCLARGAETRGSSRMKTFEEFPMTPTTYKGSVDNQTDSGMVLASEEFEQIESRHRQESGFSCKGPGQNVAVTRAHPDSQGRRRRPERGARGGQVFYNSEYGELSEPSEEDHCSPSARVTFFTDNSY
The data set is described as follows: KINOMEscan kinase profiling. The class given is binding. The settings on record: read-out: %Inhibition by 10 μM SPA70. On the procedure: (§1) Kinase inhibition profiling assays. The kinase inhibition profiling assay (KINOMEscan) was performed by Ambit Biosciences, now part of DiscoveryX (Fremont, CA) in accordance with the […]
(§2) published protocol20, 21. […] If the inhibition of a kinase was greater […]
(§3) dilutions) starting from 30 µM.

Another data set concerns the target T4, ERK3 (Homo sapiens, UniProt Q16659).
T4 construct: purchased DiscoverX (Ambit Biosciences) KINOMEscan
The data set is described as follows: KINOMEscan kinase profiling. The class given is binding. The following applies: read-out: %Inhibition by 10 μM SPA70. On the procedure: as §1, §2, §3

In another data set the target is T5, TRKC (Homo sapiens, UniProt Q16288).
T5 construct: purchased DiscoverX (Ambit Biosciences) KINOMEscan
The data set is described as follows: KINOMEscan kinase profiling. It is filed as binding. The following applies: read-out: %Inhibition by 10 μM SPA70. On the procedure:
as §1, §2, §3

The next data set concerns the target T6, TAOK1 (Homo sapiens, UniProt Q7L7X3).
T6 construct: purchased DiscoverX (Ambit Biosciences) KINOMEscan
The data set is described as follows: KINOMEscan kinase profiling. It is filed as binding. The settings on record: read-out: %Inhibition by 10 μM SPA70. On the procedure: as §1, §2, §3

The target in the next data set is T7, DAPK3 (Homo sapiens, UniProt O43293).
T7 construct: purchased DiscoverX (Ambit Biosciences) KINOMEscan
T7 sequence (O43293 whole entry): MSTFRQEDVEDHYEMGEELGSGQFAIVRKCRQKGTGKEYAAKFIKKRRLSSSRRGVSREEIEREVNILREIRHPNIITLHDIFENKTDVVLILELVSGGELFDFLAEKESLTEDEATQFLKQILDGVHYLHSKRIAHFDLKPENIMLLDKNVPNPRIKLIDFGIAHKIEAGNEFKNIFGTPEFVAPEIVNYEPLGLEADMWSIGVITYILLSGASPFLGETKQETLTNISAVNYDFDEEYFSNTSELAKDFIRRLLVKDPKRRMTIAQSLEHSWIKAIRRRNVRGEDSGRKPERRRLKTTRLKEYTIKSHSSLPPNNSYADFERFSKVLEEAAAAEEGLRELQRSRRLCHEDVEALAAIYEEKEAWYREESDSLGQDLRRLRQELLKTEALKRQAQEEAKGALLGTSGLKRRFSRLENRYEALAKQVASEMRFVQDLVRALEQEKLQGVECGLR
The data set is described as follows: KINOMEscan kinase profiling. It is filed as binding. The settings on record: read-out: %Inhibition by 10 μM SPA70. On the procedure:
as §1, §2, §3

The target in another data set is T8, DMPK (Homo sapiens, UniProt Q09013).
T8 construct: purchased DiscoverX (Ambit Biosciences) KINOMEscan
T8 sequence (Q09013 whole entry): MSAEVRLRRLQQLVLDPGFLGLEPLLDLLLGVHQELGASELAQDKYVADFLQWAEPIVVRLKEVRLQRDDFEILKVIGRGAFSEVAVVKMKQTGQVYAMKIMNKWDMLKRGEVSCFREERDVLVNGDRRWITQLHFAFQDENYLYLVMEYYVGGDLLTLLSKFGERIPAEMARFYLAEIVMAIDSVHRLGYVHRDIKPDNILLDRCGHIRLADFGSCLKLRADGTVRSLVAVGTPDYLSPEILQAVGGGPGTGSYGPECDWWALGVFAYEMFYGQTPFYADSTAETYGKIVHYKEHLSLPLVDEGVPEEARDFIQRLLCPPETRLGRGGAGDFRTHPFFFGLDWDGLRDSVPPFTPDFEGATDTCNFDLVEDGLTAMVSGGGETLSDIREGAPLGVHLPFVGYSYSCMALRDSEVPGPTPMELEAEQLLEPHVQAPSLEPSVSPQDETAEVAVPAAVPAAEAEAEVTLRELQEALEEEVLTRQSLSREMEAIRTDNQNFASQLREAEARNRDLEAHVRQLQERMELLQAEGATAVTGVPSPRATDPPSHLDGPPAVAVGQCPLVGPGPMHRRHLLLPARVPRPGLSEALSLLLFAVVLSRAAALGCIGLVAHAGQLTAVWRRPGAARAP
The data set is described as follows: KINOMEscan kinase profiling. The class given is binding. The settings on record: read-out: %Inhibition by 10 μM SPA70. On the procedure: as §1, §2, §3

Another data set concerns the target T9, CDK3 (Homo sapiens, UniProt Q00526).
T9 construct: purchased DiscoverX (Ambit Biosciences) KINOMEscan
The data set is described as follows: KINOMEscan kinase profiling. The class given is binding. On the procedure: as §1, §2, §3

The next data set has as its system LS1034 cells. Description: CellTiter-Glo cytotoxicity assay. The following applies: 10 µM SPA70.
A further data set addresses T10, hPXR (Homo sapiens, UniProt O75469).
T10 sequence (O75469 1-434): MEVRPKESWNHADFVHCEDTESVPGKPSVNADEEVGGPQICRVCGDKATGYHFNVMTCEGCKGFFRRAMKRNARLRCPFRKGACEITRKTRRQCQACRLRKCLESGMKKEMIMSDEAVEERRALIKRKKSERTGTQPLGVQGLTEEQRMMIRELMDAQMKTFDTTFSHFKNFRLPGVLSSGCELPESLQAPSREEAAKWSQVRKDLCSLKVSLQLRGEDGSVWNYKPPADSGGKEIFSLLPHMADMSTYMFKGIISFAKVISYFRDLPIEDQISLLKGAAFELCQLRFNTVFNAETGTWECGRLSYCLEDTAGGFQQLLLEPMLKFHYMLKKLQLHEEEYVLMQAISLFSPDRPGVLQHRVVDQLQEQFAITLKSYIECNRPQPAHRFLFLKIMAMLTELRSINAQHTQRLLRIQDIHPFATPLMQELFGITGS
The data set is described as follows: hPXR transactivation assay, HepG2 stable cell line, antagonistic mode. The settings on record: SPA70 concentration of 10 μM; all rifampicin concentrations tested.

The next data set relates to MDR1 in LS174T cells. The data set is described as follows: MDR1 protein levels (western blot). The class given is cell-based, human. The settings on record: 10 μM SPA70, 1.6 μM RIF, 72 h. On the procedure: (§4) Cells were rinsed once with cold PBS then lysed in RIPA lysis buffer (Thermo Fisher Scientific) containing protease inhibitor (Roche). Mouse liver samples were homogenized in 500 μl of cold RIPA lysis buffer in a Bullet Blender Blue homogenizer (Next Advance, Averill Park, NY). Then, 25 μg of total protein lysates were loaded onto NuPAGE 4%–12% Bis-Tris gels (Invitrogen) with NuPAGE MES SDS running buffer (Invitrogen). The proteins were transferred from the gel to a nitrocellulose membrane by using the iBlot gel-transfer system (Invitrogen). The membrane was then blocked for 1 h with Odyssey Blocking Buffer (LI-COR Biosciences, Lincoln, NE) and probed with mouse monoclonal antibodies against CYP3A4 (K03; stock concentration: 2.5 mg ml^−1, diluted 1:5000)[51], MDR1 (D-11; Cat. No. sc-55510, Santa Cruz Biotechnology, Santa Cruz, CA; stock concentration: 0.2 mg ml^−1, diluted 1:1500), hPXR (H-11; Cat. No. sc-48340, Santa Cruz Biotechnology; stock concentration: 0.2 mg ml^−1, diluted 1:400), mouse Cyp3a (Cat. No. MAB10041, Millipore, Temecula, CA; Lot No. 1957980, diluted 1:1000), or β-actin (Cat. No. A5441, Sigma; Lot No. 043M4840V, diluted 1:5000). […] The relative intensity of each protein band was then determined by normalizing the intensity of each protein band to that of actin. […]

A further data set deals with MDR1 in LS180 cells. Description: MDR1 protein levels (western blot). It is filed as cell-based, human. The following applies: 10 μM SPA70, 1.6 μM RIF, 72 h. On the procedure:
as §4
A general note: A western blot detects proteins with antibodies after separation by electrophoresis.

A further data set deals with LS180 cells (parental). The data set is described as follows: CellTiter-Glo cytotoxicity assay. The following applies: 10 µM SPA70.
For the next data set, the system named is CYP3A4. Description: CYP3A4 protein levels in primary human hepatocytes (western blot). The class given is cell-based. On the procedure: as §4
The next data set deals with LXRβ (Homo sapiens, UniProt P55055). Description: GeneBLAzer NR-UAS-bla HEK 293 T assay. It is filed as cell-based. The following applies: antagonistic mode; only at concentrations higher than 5 µM.
Sequence of LXRβ (P55055 222-460 limits assumed): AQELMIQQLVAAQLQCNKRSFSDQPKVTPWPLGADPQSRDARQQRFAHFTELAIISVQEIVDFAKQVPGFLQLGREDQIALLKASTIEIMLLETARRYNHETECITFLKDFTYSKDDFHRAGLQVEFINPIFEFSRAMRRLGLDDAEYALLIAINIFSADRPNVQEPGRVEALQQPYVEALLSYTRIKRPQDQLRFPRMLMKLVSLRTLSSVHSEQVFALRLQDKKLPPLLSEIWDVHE
The next data set concerns C57BL/6 mice. The data set is described as follows: Animal acute toxicity study. The settings on record: oral 500 mg kg−1, days 13 and 15.
A further data set deals with HepG2 cells. Description: One- and 3-day cytotoxicity assay. It is filed as cell-based, human. The settings on record: HepG2, one- and 3-day. On the procedure: (§5) After the plated had been incubated for 24 or 72 h at 37 °C, the cytotoxicity was determined using a CellTiter-Glo luminescent cell viability assay (Promega). […] The final DMSO concentration was 0.5% for all wells.

In the next data set the test system is HEK293 cells. The data set is described as follows: One- and 3-day cytotoxicity assay. The class given is cell-based, human. The following applies: HEK293, one- and 3-day. On the procedure:
as §5

T2 sequence (Q14994 whole entry): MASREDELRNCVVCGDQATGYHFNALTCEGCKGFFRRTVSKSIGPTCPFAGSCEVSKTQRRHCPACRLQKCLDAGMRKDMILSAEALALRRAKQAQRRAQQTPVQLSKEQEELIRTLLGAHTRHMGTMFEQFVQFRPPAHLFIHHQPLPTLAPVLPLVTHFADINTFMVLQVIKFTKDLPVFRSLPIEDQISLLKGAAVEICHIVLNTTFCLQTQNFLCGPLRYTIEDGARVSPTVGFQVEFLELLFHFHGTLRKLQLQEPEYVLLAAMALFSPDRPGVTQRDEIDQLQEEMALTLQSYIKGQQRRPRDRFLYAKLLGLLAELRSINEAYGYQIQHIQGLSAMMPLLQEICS
T6 sequence (Q7L7X3 whole entry): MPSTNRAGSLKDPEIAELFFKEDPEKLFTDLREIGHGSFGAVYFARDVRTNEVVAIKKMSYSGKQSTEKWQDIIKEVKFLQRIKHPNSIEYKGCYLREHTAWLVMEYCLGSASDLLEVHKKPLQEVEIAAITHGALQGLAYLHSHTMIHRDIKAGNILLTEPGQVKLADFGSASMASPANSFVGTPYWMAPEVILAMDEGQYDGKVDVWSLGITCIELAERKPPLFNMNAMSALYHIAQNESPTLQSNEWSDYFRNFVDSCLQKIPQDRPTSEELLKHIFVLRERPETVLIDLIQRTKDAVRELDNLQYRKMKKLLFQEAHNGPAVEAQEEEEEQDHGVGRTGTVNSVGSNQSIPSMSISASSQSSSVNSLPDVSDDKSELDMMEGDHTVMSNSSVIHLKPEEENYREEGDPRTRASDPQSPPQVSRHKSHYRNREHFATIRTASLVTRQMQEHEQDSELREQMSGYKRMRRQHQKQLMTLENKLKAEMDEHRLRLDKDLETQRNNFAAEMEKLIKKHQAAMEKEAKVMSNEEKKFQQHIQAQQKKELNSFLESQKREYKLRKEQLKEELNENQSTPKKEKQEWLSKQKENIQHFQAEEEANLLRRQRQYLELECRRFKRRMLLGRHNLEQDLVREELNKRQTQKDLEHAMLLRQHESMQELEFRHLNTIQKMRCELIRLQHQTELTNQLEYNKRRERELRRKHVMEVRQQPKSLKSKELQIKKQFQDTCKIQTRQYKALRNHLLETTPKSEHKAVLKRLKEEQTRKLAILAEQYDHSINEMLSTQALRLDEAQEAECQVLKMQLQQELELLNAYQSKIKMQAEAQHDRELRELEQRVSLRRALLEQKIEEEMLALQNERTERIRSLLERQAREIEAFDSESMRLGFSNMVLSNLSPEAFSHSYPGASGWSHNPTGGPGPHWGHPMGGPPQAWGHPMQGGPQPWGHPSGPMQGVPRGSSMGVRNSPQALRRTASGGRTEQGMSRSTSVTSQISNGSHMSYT
T1 sequence (O75376 2256-2278 partner limits assumed, one chain of several): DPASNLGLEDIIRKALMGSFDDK
T9 sequence (Q00526 whole entry): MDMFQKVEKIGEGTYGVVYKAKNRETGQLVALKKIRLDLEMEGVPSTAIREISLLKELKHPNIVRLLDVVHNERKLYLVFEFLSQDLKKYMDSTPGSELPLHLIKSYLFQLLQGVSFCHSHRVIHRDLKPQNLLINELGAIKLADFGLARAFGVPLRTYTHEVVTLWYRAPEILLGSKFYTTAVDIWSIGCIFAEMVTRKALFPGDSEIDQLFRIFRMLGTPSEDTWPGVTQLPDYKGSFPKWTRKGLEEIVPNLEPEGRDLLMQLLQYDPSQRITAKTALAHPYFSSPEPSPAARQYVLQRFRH
Description for C57BL/6 mice: In the animal acute toxicity studies, C57BL/6 mice were randomly apportioned among six groups, with five mice per group. […] After dosing, mice were monitored daily for 15 days for morbidity and mortality. Signs of morbidity included ruffled fur, hunching, tremors, lethargy, hyperactivity and diarrhea, in addition to a reduction in weight gain. The body weight of each mouse was recorded before and after treatment. At day 15, all mice were killed and a terminal blood sample was collected for examination of clinical chemistries (e.g., renal, liver and hematopoietic function). Histopathological examination of the major organs was performed with hematoxylin and eosin staining.
Description for LS1034 cells: (§6) For the LS180, SNU-C4 and LS1034 cytotoxicity assays, cells were seeded in a 96-well plate (Corning) at 4000 cells per well. […] Cell viability was assessed using the CellTiter-Glo assay.
Description for LS180 cells (parental): as §6
Description for LXRβ: The assays were performed in accordance with the manufacturer’s instructions, with minor modifications as reported previously[48]–[50]. Briefly, positive control (as described for each assay), DMSO, and dilutions of test chemicals either alone (for agonistic assays) or in combination with an approximately EC80 concentration of a specific agonist (for antagonistic assays) were incubated with an optimized number of cells for each assay in wells of black 384-well tissue culture-treated clear-bottom plates with 30 µl of the respective assay medium in a 37 °C cell-culture incubator. A group of wells containing assay medium and DMSO, but no cells, served as a background control. The final DMSO concentration was 0.5% for all wells.
Description for SNU-C4 cells: as §6
Description for hCAR: The hCAR transactivation assays were performed as described previously[48]. […] The relative luciferase activity was determined by normalizing the firefly luciferase signal to the Renilla luciferase signal and was used to represent the ‘relative activity of CAR’. The final DMSO concentration was 0.4% in all assays.

Usually inhibition stands for the share of the control response that was lost under treatment. As for `COc1ccc(OC)c(-n2nnc(S(=O)(=O)c3ccc(C(C)(C)C)cc3)c2C)c1` [SPA70], the “Effect on hPXR–NCoR interactions” value on hPXR–NCoR is listed as “enhanced the hPXR–NCoR interactions”. In addition, the “Effect on basal activity of CAR” value at hCAR was “very weak CAR inverse agonist; also recorded: very weakly inhibited the basal activity”. For the same compound, the “Sensitization of SNU-C4 cells to paclitaxel and vincristine” value in the data set with SNU-C4 cells was “sensitizing the cells to paclitaxel and vincristine”. Besides, the inhibition at 10 µM on FLT4 turned out to be 2%; at ERK3, 11%; on TRKC it was 0%; at TAOK1 it was 15%; at DAPK3, 0%; on DMPK, 0%. Besides, the “%Inhibition by 10 μM SPA70” value on CDK3 was determined as 3%. Further, the “Sensitization of LS1034 cells to paclitaxel and vincristine” value in the data set with LS1034 cells is “sensitized LS1034 cells to both paclitaxel and vincristine”. At hPXR, the “Effect on rifampicin-induced hPXR activation” value is “completely blocked the activity of rifampicin”. Further, the “Effect on rifampicin induction of MDR1” value with MDR1 in LS174T cells and in the data set on MDR1 in LS180 cells was “able to block rifampicin induction of MDR1” throughout. Further, the “Toxicity of SPA70 alone in LS180 cells” value in the data set with LS180 cells (parental) was “marginally toxic”. For the same compound, the “Effect on CYP3A4 induction by SR12813 and T090137” value with CYP3A4 (2.5 μM SPA70, 0.1 μM SR12813 or 0.03 μM T090137, 48 h) is recorded as “able to block the CYP3A4-inducing effect”. Moreover, the “Effect on CYP3A4 induction by rifampicin” value in the data set on CYP3A4 (2.5 μM SPA70, 1 μM rifampicin, 48 h) is “substantially blocked”. For the same compound, the “Effect on agonistic activity of T0901317 on LXRβ” value on LXRβ is “weakly promoted the agonistic effect of T0901317 on LXRβ; also recorded: marginally increased the agonistic activity of T0901317 on LXRβ”. In addition, the Mouse body weight result with C57BL/6 mice is “increase in mouse body weight”. The Cytotoxicity entry in the data set with HepG2 cells and in the data set on HEK293 cells was “marginal cytotoxicity” in each case.

The record behind these values is PMC5622171 (Nature Communications, 2017).
